This note sets out measurements from patent publication US20150376225A1, “NOVEL COMPOUNDS OF 11BETA-HYDROXY-STEROIDS FOR USE IN MITOCHONDRIA BIOGENESIS AND DISEASES ASSOCIATED WITH MITOCHONDRIAL DYSFUNCTION OR DEPLETION” (SPHAERA PHARMA PVTD. LTD., priority 2013, published 2015).

One assay relates to AMPK. Description: AMPK activation, cell based ELISA in Hep G2 cells. Conditions: 1 h incubation, DMSO control as 100%. As to the method: AMPK Activation Protocol:
AMPK activation potential of the compounds was evaluated using cell based ELISA.
Hepatoma (Hep G2) liver cells were maintained in a T 75 culture flask-containing 25 mM DMEM+10% fetal calf serum. The cells were maintained in a T 75 culture flask-containing medium (DMEM+10% fetal calf serum). On reaching a confluence of 70 to 80%, the cells were seeded in a 96 well plate at a density of 40,000 cells per well in 25 mM DMEM+10% FCS medium. The plates were then incubated at 37° C. with 5% CO2 for 24 hours. Various concentrations of drugs were prepared in DMSO and diluted to required concentration with the medium and incubated at 37° C. with 5% CO2 for 30 min and 1 h for Epicatechin analogs and 11-BHP analogs respectively. Metformin was used as positive control. Cells were fixed with 4% formaldehyde for 30 minutes at room temperature and washed three times with PBS containing 0.1% Triton X-100. Endogenous peroxidase was quenched with 1% H2O2 in PBS-T (0.1% Tween 20) for 30 minutes and washed three times in PBS-T. Cells were blocked with 1% BSA in PBS-T for 1 hour.
(In general: In an ELISA, binding on a coated surface is turned into a signal by an enzyme label.)
As to `CC(=O)[C@H]1CCC2C3CC=C4C[C@@H](O)CC[C@]4(C)C3[C@@](C)(O)C[C@@]21C` (stereo partly drawn) [Compound 1047, 1-((3S,10R,11S,13S,17S)-3,11-dihydroxy-10,11,13-trimethyl-2,3,4,7,8,9,10,11,12,13,14,15,16,17-tetradecahydro-1H-cyclopenta[a]phenanthren-17-yl)ethan-1-one], the “% activation pAMPK at 1 nM” value was found to be 119%. On the same count and under the same terms, for `C[C@]12C[C@H](O)C3C(CCC4=CC(=O)CC[C@@]43C)C1CCC2C(=O)CO` (stereo partly drawn) [Compound 1048, (10R,11S,13S)-11-hydroxy-17-(2-hydroxyacetyl)-10,13-dimethyl-1,2,6,7,8,9,10,11,12,13,14,15,16,17-tetradecahydro-3H-cyclopenta[a]phenanthren-3-one] the value was 108%.

Another assay concerns oxidative phosphorylation complex I. The experiment in a line: Slot blot method, complex I normalized to GAPDH.
Conditions: not given
It counts as cell-based, bovine. As to the method: Following treatment, bovine aortic endothelial cells grown in 12 well plates are scrapped in 50 μl of lysis buffer (1% Triton X-100, 20 mm Tris, 140 mm NaCl, 2 mm EDTA, and 0.1% SDS) with protease and phosphatase inhibitor cocktails (P2714 and P2850, Sigma-Aldrich) supplemented with 0.15 mm PMSF, 5 mm Na3VO4 and 3 mm NaF. Homogenates are passed through an insulin syringe five times, sonicated for 30 min at 4° C. and centrifuged (12,000 g) for 10 min. The total protein content is measured in the supernatant using the Bradford method. A total of 10-20 μg of protein are loaded into a pre-assembled slot blot apparatus to be transferred under vacuum onto polyvinyl membranes, incubated for 1 h in blocking solution (5% non-fat dry milk in TBS plus 0.1% Tween 20 (TBS-T)), followed by a overnight incubation at 4° C. with primary antibodies (oxidative phosphorylation complex I or GAPDH). Primary antibodies are diluted in TBS-T plus 5% non-fat dry milk. Membranes are washed (3× for 5 min) in TBS-T and incubated 1 h at room temperature in the presence of HRP-conjugated secondary antibodies diluted in blocking solution. Membranes are again washed 3 times in TBS-T, and the immunoblots developed using an ECL Plus detection kit (Amersham-GE). Band intensities are digitally quantified using ImageJ software (http://www.nih.gov). Complex I values are normalized for loading differences using GAPDH after stripping and reprobing of the membrane. All Western blot images to be obtained will be within the linear range of X-ray film to ensure computer-assisted densitometry accuracy.
With `CC(=O)[C@H]1CC[C@H]2[C@@H]3CC=C4C[C@@H](O)CC[C@]4(C)[C@H]3[C@@H](O)C[C@]12C` [Compound 1002, 1-((3S,8S,9S,10R,11S,13S,14S,17S)-3,11-dihydroxy-10,13-dimethyl-2,3,4,7,8,9,10,11,12,13,14,15,16,17-tetradecahydro-1H-cyclopenta[a]phenanthren-17-yl)ethanone], the “Slot Blot Assay” value is on record as “+ (+ indicates >150% HCAEC)”. On the same count and under the same terms, the result for `COC(=O)[C@H]1CC[C@H]2[C@@H]3CC=C4C[C@@H](O)CC[C@]4(C)[C@H]3[C@@H](O)C[C@]12C` [Compound 1004, (3S,8S,9S,10R,11S,13S,14S,17S)-methyl 3,11-dihydroxy-10,13-dimethyl-2,3,4,7,8,9,10,11,12,13,14,15,16,17-tetradecahydro-1H-cyclopenta[a]phenanthrene-17-carboxylate] reads “+ (+ indicates >150% HCAEC)”. Same read-out and setting: for `CC[C@H]1CC[C@H]2[C@@H]3CC=C4C[C@@H](O)CC[C@]4(C)[C@H]3[C@@H](O)C[C@]12C` [Compound 1009, (3S,8S,9S,10R,11S,13R,14S,17S)-17-ethyl-10,13-dimethyl-2,3,4,7,8,9,10,11,12,13,14,15,16,17-tetradecahydro-1H-cyclopenta[a]phenanthrene-3,11-diol] the value was “+ (+ indicates >150% HCAEC)”. As to `Cc1noc([C@H]2CC[C@H]3[C@@H]4CCC5=CC(=O)CC[C@]5(C)[C@H]4[C@@H](O)C[C@]23C)n1` [Compound 1012, (8S,9S,10R,11S,13S,14S,17S)-11-hydroxy-10,13-dimethyl-17-(3-methyl-1,2,4-oxadiazol-5-yl)-6,7,8,9,10,11,12,13,14,15,16,17-dodecahydro-1H-cyclopenta[a]phenanthren-3(2H)-one], the “Slot Blot Assay” value is “+ (+ indicates >150% HCAEC)”.

The next assay concerns BCAEC. The experiment in a line: 3-(4,5-Dimethylthiazol-2-yl)-2,5-diphenyltetrazolium bromide (MTT) assay, mitochondrial function (MTT/Methylene Blue ratio). In kind it is cell-based, bovine. Conditions: treated for 48 hours. How it is done:
3-(4,5-Dimethylthiazol-2-yl)-2,5-diphenyltetrazolium bromide (MTT) assay
6,000 BCAEC were seeded into clear 96-well flat bottom plates at 100 μl per well. After starvation, cells were treated for 48 hours with the corresponding compounds. Compounds were changed every 12 and 24 hours (with 100 μl per well of fresh medium). Following the treatment medium was aspirated from plates, and washed once with 100 μl HBSS, subsequently 100 μl per well 0.5 mg/ml MTT in phenol red-free DMEM was added. Plates were incubated for 1 hour at 37° C., and this was followed by aspiration of MTT solution, addition of 100 μl per well DMSO to dissolve formazan crystals, and incubation at 37° C. for 15 minutes. Mitochondrial function was quantified by absorbance was measured at 540 nm with background substraction at 670 nm using. After MTT absorbance measure, media was removed and cells quantify in each well as described elsewhere (Oliver et al, 1989) with some modifications. In brief, 100 μl of 10% formol saline to each well was added, and incubated at 4° C. for 24 hours. Next, formol solution was removed from the wells and 100 μl of filtered 0.1% (w/v) Methylene Blue in 0.01 M borate buffer (pH 8.5) was added to each well. After 30 minutes, excess dye was removed and washed off 3 times with 0.01 M borate buffer (pH 8.5). […] The plates were then gently shaken and incubated for 15 minutes under a bench rocker. Absorbance was measured at 650 nm. The MTT/Methylene Blue ratio was used to quantify the mitochondrial function. Oliver M H, Harrison N K, Bishop J E, Cole P J, Lauren G J. A rapid and convenient assay for counting cells cultured in microwell plates: application for assessment of growth factors. J Cell Sci. 1989, 3:513-8.
In the case of `CC1([C@H]2CC[C@H]3[C@@H]4CC=C5C[C@@H](O)CC[C@]5(C)[C@H]4[C@@H](O)C[C@]23C)OCCO1` [Compound 1001, (3S,8S,9S,10R,11S,13S,14S,17S)-10,13-dimethyl-17-(2-methyl-1,3-dioxolan-2-yl)-2,3,4,7,8,9,10,11,12,13,14,15,16,17-tetradecahydro-1H-cyclopenta[a]phenanthrene-3,11-diol], the “MTT Assay” value is recorded as “+ (+ indicates >110%)”. Same read-out and setting: for `CC(O)[C@H]1CC[C@H]2[C@@H]3CC=C4C[C@@H](O)CC[C@]4(C)[C@H]3[C@@H](O)C[C@]12C` (stereo partly drawn) [Compound 1003, (3S,8S,9S,10R,11S,13S,14S,17S)-17-(1-hydroxyethyl)-10,13-dimethyl-2,3,4,7,8,9,10,11,12,13,14,15,16,17-tetradecahydro-1H-cyclopenta[a]phenanthrene-3,11-diol] the value was “+ (+ indicates >110%)”. `CC(=O)[C@H]1CC[C@H]2[C@@H]3CCC4=CC(=O)CC[C@]4(C)[C@H]3[C@@H](O)C[C@]12C` [Compound 1007, (8S,9S,10R,11S,13S,14S,17S)-17-acetyl-11-hydroxy-10,13-dimethyl-6,7,8,9,10,11,12,13,14,15,16,17-dodecahydro-1H-cyclopenta[a]phenanthren-3(2H)-one]: the “MTT Assay” value was “+ (+ indicates >110%)”.
